Source: patent US12427183B2, “Methods of treating cancer, infectious disease, and autoimmune disease using chemokines” (New York Society for the Relief of the Ruptured and …, priority 2016, dated 2025)

Experiments:
[1] = system: CXCR3; assay: CXCR3 inhibition during chemokine-potentiated TLR9 activation of pDCs, IFN-α ELISA; format: cell-based, human; conditions: AMG487 0.1, 1 or 10 μM, CpG 0.25 μM, 24 hours
Experimental: Purified pDCs from HDs were cultured in media alone (control), with either a CpG TLR9 agonist (0.25 μM) or with CpG and either CXCL4 or CXCL10 (both at 10 μg/ml) alone or in the presence of the CXCR3 inhibitor AMG487 at 0, 0.1, 1 or 10 μM for 24 hours. IFN-α was quantified in the supernatants by ELISA.

[2] = biological target: PI3Kδ (Homo sapiens, UniProt O00329); conditions: at the concentration used (10 μM)
Chain of PI3Kδ (O00329 whole entry): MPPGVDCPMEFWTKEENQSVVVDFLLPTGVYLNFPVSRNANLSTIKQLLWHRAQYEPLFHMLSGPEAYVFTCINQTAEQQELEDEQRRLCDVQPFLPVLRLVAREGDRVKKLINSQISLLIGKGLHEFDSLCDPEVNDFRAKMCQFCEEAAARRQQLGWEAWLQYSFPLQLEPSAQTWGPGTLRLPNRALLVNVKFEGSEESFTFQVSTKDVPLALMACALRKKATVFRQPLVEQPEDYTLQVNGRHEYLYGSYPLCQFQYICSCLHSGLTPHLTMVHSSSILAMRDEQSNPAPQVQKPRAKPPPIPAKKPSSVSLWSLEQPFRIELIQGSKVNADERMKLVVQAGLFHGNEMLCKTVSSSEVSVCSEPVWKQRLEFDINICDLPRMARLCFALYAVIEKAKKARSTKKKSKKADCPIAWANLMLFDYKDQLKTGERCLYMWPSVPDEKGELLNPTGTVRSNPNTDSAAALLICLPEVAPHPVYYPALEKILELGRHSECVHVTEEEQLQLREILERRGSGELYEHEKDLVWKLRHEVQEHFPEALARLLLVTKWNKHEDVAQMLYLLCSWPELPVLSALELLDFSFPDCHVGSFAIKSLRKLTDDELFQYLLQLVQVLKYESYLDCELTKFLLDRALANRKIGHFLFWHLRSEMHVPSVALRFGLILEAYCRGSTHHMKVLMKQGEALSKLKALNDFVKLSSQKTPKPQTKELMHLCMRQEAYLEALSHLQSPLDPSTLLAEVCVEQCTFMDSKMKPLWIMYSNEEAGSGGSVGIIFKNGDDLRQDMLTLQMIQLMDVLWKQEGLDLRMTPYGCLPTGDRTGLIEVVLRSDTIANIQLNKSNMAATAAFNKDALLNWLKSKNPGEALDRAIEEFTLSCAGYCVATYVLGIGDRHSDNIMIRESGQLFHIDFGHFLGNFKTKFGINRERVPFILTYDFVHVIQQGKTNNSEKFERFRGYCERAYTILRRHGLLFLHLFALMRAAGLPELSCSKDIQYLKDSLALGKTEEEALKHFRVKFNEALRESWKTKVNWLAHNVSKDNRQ
Chain of PI3Kδ (P27986 whole entry partner): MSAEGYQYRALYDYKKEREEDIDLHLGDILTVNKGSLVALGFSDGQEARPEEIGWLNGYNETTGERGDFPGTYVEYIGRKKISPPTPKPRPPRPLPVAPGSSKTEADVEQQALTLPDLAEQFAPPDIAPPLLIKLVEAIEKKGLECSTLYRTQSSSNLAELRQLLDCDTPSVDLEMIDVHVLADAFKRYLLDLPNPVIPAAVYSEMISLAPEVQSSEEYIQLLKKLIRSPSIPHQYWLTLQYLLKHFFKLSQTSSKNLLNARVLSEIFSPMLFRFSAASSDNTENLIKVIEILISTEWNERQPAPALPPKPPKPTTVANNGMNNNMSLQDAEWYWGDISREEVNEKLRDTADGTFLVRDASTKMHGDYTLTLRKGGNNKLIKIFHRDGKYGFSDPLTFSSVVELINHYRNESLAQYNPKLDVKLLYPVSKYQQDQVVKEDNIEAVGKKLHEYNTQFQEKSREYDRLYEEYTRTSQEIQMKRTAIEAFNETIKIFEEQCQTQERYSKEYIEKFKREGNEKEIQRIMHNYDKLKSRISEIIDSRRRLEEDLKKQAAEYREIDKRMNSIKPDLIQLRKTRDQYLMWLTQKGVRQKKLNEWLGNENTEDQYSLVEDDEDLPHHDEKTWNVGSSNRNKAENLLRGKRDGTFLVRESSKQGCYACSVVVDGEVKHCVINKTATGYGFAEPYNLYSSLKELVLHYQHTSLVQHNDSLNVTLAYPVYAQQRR

| SMILES | effect of CXCR3 inhibition on the activation of TLR9 by CXCL4 in pDCs ([1]; CXCL4 10 μg/ml) | effect of CXCR3 inhibition on the activation of TLR9 by CXCL10 in pDCs ([1]; CXCL10 10 μg/ml) | cell viability of pDCs from HDs [2] |
| --- | --- | --- | --- |
| CCOc1ccc(-n2c([C@@H](C)N(Cc3cccnc3)C(=O)Cc3ccc(OC(F)(F)F)cc3)nc3ncccc3c2=O)cc1 [AMG487] | no effect | no effect | – |
| CC[C@H](Nc1ncnc2[nH]cnc12)c1nc2cccc(F)c2c(=O)n1-c1ccccc1 [CAL-101] | – | – | without impacting |
